In one data set the test system is Candida albicans JCM1542. The experiment in a line: Antimicrobial activity (MIC), Candida albicans. Format: cell-based. The text has this: (§1) The minimum inhibitory concentrations (MIC's) of the HP530 compounds and their derivatives of the invention against bacteria and fungi are shown in Table 2.
In data set [1] the test system is Salmonella typhimurium TA1535. The experiment in a line: Antimicrobial activity (MIC), Salmonella typhimurium. Format: cell-based. The conditions noted are these: Salmonella enterica.
Text: as §1

Data set [2] has as its system Bacillus subtilis H17Rec^+. Nature of the data set: Antimicrobial activity (MIC), Bacillus subtilis H17Rec^+. Format: cell-based.
Text: as §1

Data set [3] deals with mouse fibrosarcoma Meth-A cell line. Nature of the data set: Antitumor activity, increase in life span of CDF1 mice inoculated with Meth-A cells. The note with it: day 1-4. Format: in vivo. The text has this:
1) CDF1 mice were inoculated intraperitoneally with 1×10^6 cells of mouse fibrosarcoma Meth-A cell line on day 0. HP530 compounds and their derivatives dissolved in a physiological salt solution were administrated intraperitoneally once a day on day 1-4. Increase in life span is represented by the percentage of the ratio of the mean number of surviving days (T) of the treated groups of mice to the mean number of surviving days (C) of the untreated groups of mice.

A further data set has as its system Proteus vulgaris JCM1668. Nature of the data set: Antimicrobial activity (MIC), Proteus vulgaris. In kind it is cell-based.
Text: as §1

The subject of data set [4] is Staphylococcus epidermidis JCM2414. The experiment in a line: Antimicrobial activity (MIC), Staphylococcus epidermidis. Format: cell-based.
Text: as §1

Data set [5] has as its system Klebsiella pneumoniae JCM1662. The experiment in a line: Antimicrobial activity (MIC), Klebsiella pneumoniae. In kind it is cell-based.
Text: as §1

Data set [6] has as its system Micrococcus luteus JCM1464. Nature of the data set: Antimicrobial activity (MIC), Micrococcus luteus. Format: cell-based.
Text: as §1

For data set [7], the system named is Bacillus subtilis M45Rec^-. Nature of the data set: Antimicrobial activity (MIC), Bacillus subtilis M45Rec^-. Format: cell-based.
Text: as §1

In data set [8] the test system is Saccharomyces cerevisiae JCM1499. Nature of the data set: Antimicrobial activity (MIC), Saccharomyces cerevisiae. Format: cell-based.
Text: as §1

The test system of the next data set is Escherichia coli JCM1649. Nature of the data set: Antimicrobial activity (MIC), Escherichia coli. Format: cell-based.
Text: as §1

The subject of data set [9] is Staphylococcus aureus JCM2151. The experiment in a line: Antimicrobial activity (MIC), Staphylococcus aureus. In kind it is cell-based.
Text: as §1

The test system of the next data set is W98 cell line. The experiment in a line: Cytotoxicity (IC100) against W98 cell line. Format: cell-based. The conditions noted are these: Homo sapiens; W98 cells, final 10% methanol solutions; read-out: IC100 (100% growth inhibiting concentration). As to the method: 2) Cytotoxicity (IC100) against W98 cell line obtained by converting the lung cells of a human emryo by an SV40 virus was examined in the following way. When the HP530 compounds and their derivatives dissolved in methanol were added to culture solutions in such a manner that the culture solutions were prepared final 10% methanol solutions, the cytotoxicity of the HP530 compounds and their derivatives against the growth of the W98 cells in the culture solution was measured as 100% growth inhibiting concentration (IC100).

Data set [10] concerns Xanthomonas maltophilia JCM1975. The experiment in a line: Antimicrobial activity (MIC), Xanthomonas maltophilia. In kind it is cell-based. The conditions noted are these: Stenotrophomonas maltophilia.
Text: as §1

The subject of a further data set is CDF1 mice. The experiment in a line: Acute toxicity in CDF1 mice. In kind it is in vivo, mouse. The conditions noted are these: intraperitoneal, three CDF1 mice.
The mark [11] stands for this setting: ethyl acetate, acetone, n-hexane.
The mark [12] stands for this setting: solvents in which soluble (acidic water, organic solvents).

In brackets after ≈: the same amount, converted by molar mass.

`CC=CC1OC1(C)c1cc(=O)c2c(C)cc3c(c2o1)C(=O)c1c(ccc(C2CC(C)(N(C)C)C(O)C(C)O2)c1O)C3=O` (stereo not drawn) [Deacetyl HP530D]: the minimal inhibitory concentration (MIC) in the data set with Candida albicans JCM1542 is more than 100 µg/mL; in data set [1], 3.2 µg/mL (≈ 5.58 µM); in data set [2], 12.5 µg/mL (≈ 21.8 µM); with Proteus vulgaris JCM1668, more than 100 µg/mL; in [4], 6.3 µg/mL (≈ 11 µM); in [5] it was more than 100 µg/mL. The minimum inhibitory concentration (MIC) in data set [6] was 1.6 µg/mL (≈ 2.79 µM); in data set [7], 0.4 µg/mL (≈ 0.697 µM); in data set [8], 50 µg/mL (≈ 87.2 µM); with Escherichia coli JCM1649, more than 100 µg/mL; in data set [9] it was 1.6 µg/mL (≈ 2.79 µM); in data set [10], 50 µg/mL (≈ 87.2 µM). Also, the Solubility entry in the data set “Solubility” (setting [11]) is “hardly soluble in ethyl acetate, acetone and n-hexane”; in the data set “Solubility” (setting [12]), “Soluble in acidic water, methanol, chloroform and benzene”; in “Solubility” (water), “insoluble in water”. For the same compound, the “Antitumor Activity T/C” value in data set [3] (0.25 mg/kg i.p. once a day) was found to be 92%; in data set [3] (0.5 mg/kg i.p. once a day), 108%; in data set [3] (1.0 mg/kg i.p. once a day), 123%; in data set [3] (2.0 mg/kg i.p. once a day) it was 185%. Besides, in the data set on W98 cell line, the IC100 amounted to 0.00015 µg/mL. In addition, the Acute toxicity entry in the data set with CDF1 mice (20 mg/kg) is given as “no toxicity”.

In the case of `Cc1cc2c(c3oc(C4(C)OC4C)cc(=O)c13)C(=O)c1c(ccc(C3CC(C)(N(C)C)C(O)C(C)O3)c1O)C2=O` (stereo not drawn) [Deacetyl HP530E], the MIC in the data set on Candida albicans JCM1542 was more than 100 µg/mL; in data set [1], 0.4 µg/mL (≈ 0.73 µM); in data set [2] it was 6.3 µg/mL (≈ 11.5 µM); against Proteus vulgaris JCM1668, more than 100 µg/mL; in [4] it was 6.3 µg/mL (≈ 11.5 µM); in data set [5], more than 100 µg/mL. The MIC in [6] was 0.4 µg/mL (≈ 0.73 µM); in data set [7], 0.2 µg/mL (≈ 0.365 µM); in [8] it was more than 100 µg/mL; in the data set on Escherichia coli JCM1649, more than 100 µg/mL; in [9] it was 3.2 µg/mL (≈ 5.84 µM); in [10] it was 25 µg/mL (≈ 45.7 µM). Besides, the Solubility entry is “hardly soluble in ethyl acetate, acetone and n-hexane” in “Solubility” (setting [11]); “Soluble in acidic water, methanol, chloroform and benzene” in “Solubility” (setting [12]); “insoluble in water” in the data set “Solubility” (water). The “Antitumor Activity T/C” value in data set [3] (1.25 mg/kg i.p. once a day) is given as 107%; in data set [3] (2.5 mg/kg i.p. once a day) it was 183%; in [3] (5.0 mg/kg i.p. once a day), more than 187%; in data set [3] (10.0 mg/kg i.p. once a day), 83%. Moreover, the IC100 with W98 cell line worked out at 0.00015 µg/mL. Besides, the Acute toxicity result in the data set on CDF1 mice (5 mg/kg) is “no toxicity”.

For the compound `CC=CC1OC1(C)c1cc(=O)c2c(C)cc3c(c2o1)C(=O)c1c(ccc(C2CC(C)(N(C)C)C(OC(C)=O)C(C)O2)c1O)C3=O` (stereo not drawn) [HP530D], the minimum inhibitory concentration (MIC) in the data set on Candida albicans JCM1542 was 100 µg/mL (≈ 162 µM); in data set [1], 1.6 µg/mL (≈ 2.6 µM); in data set [2] it was 3.2 µg/mL (≈ 5.2 µM); in the data set on Proteus vulgaris JCM1668, more than 100 µg/mL; in [4], 3.2 µg/mL (≈ 5.2 µM); in [5] it was more than 100 µg/mL. Also, the minimum inhibitory concentration (MIC) in [6] was 1.6 µg/mL (≈ 2.6 µM); in data set [7], 0.4 µg/mL (≈ 0.65 µM); in data set [8], 6.3 µg/mL (≈ 10.2 µM); against Escherichia coli JCM1649, more than 100 µg/mL; in data set [9], 1.6 µg/mL (≈ 2.6 µM); in data set [10], 3.2 µg/mL (≈ 5.2 µM). The Solubility entry was “hardly soluble in ethyl acetate, acetone and n-hexane” in the data set “Solubility” (setting [11]); “Soluble in acidic water, methanol and chloroform” in the data set “Solubility” (setting [12]); “insoluble in water” in “Solubility” (water). For the same compound, the “Antitumor Activity T/C” value was 108% in data set [3] (0.25 mg/kg i.p. once a day), 123% in data set [3] (0.5 mg/kg i.p. once a day), 192% in [3] (1.0 mg/kg i.p. once a day) and more than 215% in [3] (2.0 mg/kg i.p. once a day). For the same compound, the IC100 in the data set with W98 cell line turned out to be 0.0006 µg/mL. Also, in the data set with CDF1 mice (10 mg/kg), the Acute toxicity result is reported as “no toxicity”.

For `CC(=O)OC1C(C)OC(c2ccc3c(c2O)C(=O)c2c(cc(C)c4c(=O)cc(C5(C)OC5C)oc24)C3=O)CC1(C)N(C)C` (stereo not drawn) [HP530E], the MIC with Candida albicans JCM1542 is more than 100 µg/mL; in data set [1], 0.8 µg/mL (≈ 1.36 µM); in data set [2], 12.5 µg/mL (≈ 21.2 µM); in the data set on Proteus vulgaris JCM1668, more than 100 µg/mL; in [4], more than 100 µg/mL; in [5] it was more than 100 µg/mL. The MIC is 0.8 µg/mL (≈ 1.36 µM) in data set [6]; 0.2 µg/mL (≈ 0.339 µM) in [7]; more than 100 µg/mL in data set [8]; more than 100 µg/mL against Escherichia coli JCM1649; 6.3 µg/mL (≈ 10.7 µM) in data set [9]; more than 100 µg/mL in data set [10]. For the same compound, the Solubility result in the data set “Solubility” (setting [11]) was “hardly soluble in ethyl acetate, acetone and n-hexane”; in the data set “Solubility” (setting [12]) it was “Soluble in acidic water, methanol, chloroform and benzene”; in the data set “Solubility” (water), “insoluble in water”. Moreover, the “Antitumor Activity T/C” value is reported as 104% in data set [3] (2.5 mg/kg i.p. once a day), 127% in [3] (5.0 mg/kg i.p. once a day), more than 196% in data set [3] (10.0 mg/kg i.p. once a day) and more than 192% in data set [3] (20.0 mg/kg i.p. once a day). Besides, the IC100 in the data set with W98 cell line is 0.0006 µg/mL. Further, the Acute toxicity entry in the data set with CDF1 mice (20 mg/kg) is “no toxicity”.

With `CC=C(C)c1cc(=O)c2c(C)cc3c(c2o1)C(=O)c1c(ccc(C2CC(C)(N(C)C)C(OC(C)=O)C(C)O2)c1O)C3=O` (stereo not drawn) [HP530G], the MIC against Candida albicans JCM1542 is more than 100 µg/mL; in data set [1], 100 µg/mL (≈ 174 µM); in [2], 100 µg/mL (≈ 174 µM); in the data set with Proteus vulgaris JCM1668 it was more than 100 µg/mL; in data set [4] it was 25 µg/mL (≈ 43.6 µM); in data set [5], more than 100 µg/mL. Further, the minimal inhibitory concentration (MIC) in [6] was 12.5 µg/mL (≈ 21.8 µM); in data set [7], 3.2 µg/mL (≈ 5.58 µM); in data set [8], more than 100 µg/mL; against Escherichia coli JCM1649, more than 100 µg/mL; in data set [9], 50 µg/mL (≈ 87.2 µM); in data set [10], more than 100 µg/mL. The Solubility result is “hardly soluble in ethyl acetate, acetone and n-hexane” in the data set “Solubility” (setting [11]); “Soluble in acidic water, methanol, chloroform and benzene” in the data set “Solubility” (setting [12]); “insoluble in water” in the data set “Solubility” (water). Also, the “Antitumor Activity T/C” value in [3] (2.5 mg/kg i.p. once a day) came out at 112%; in data set [3] (5.0 mg/kg i.p. once a day) it was 123%; in data set [3] (10.0 mg/kg i.p. once a day), 115%; in data set [3] (20.0 mg/kg i.p. once a day) it was 123%. Besides, the IC100 with W98 cell line came out at 0.1 µg/mL. Further, the Acute toxicity entry in the data set on CDF1 mice (20 mg/kg) is listed as “no toxicity”.

For the origin of these results see US5168100A, “HP530 compounds and process for preparing the same” (Sapporo Breweries Limited, priority 1990, dated 1992).
